ChEMBL document CHEMBL1275384, “Structure-activity relationships of benzimidazole-based selective inhibitors of the mitogen activated kinase-5 signaling pathway” (2010)

What was measured:
[1] = test system: PC-3; test: Cytotoxicity against human PC3 cells at 10 uM assessed as cell growth relative to control; assay type: functional; settings: read-out: Activity
[2] = test system: TK-10; test: Cytotoxicity against human TK10 cells at 10 uM assessed as cell growth relative to control; assay type: functional; settings: read-out: Activity
[3] = test system: CCRF-CEM; test: Cytotoxicity against human CCRF-CEM cells at 10 uM assessed as cell growth relative to control; assay type: functional; settings: read-out: Activity
[4] = test system: HCC 2998; test: Cytotoxicity against human HCC2998 cells at 10 uM assessed as cell growth relative to control; assay type: functional; settings: read-out: Activity
[5] = test system: EKVX; test: Cytotoxicity against human EKVX cells at 10 uM assessed as cell growth relative to control; assay type: functional; settings: read-out: Activity
[6] = test system: SN12C; test: Cytotoxicity against human SN12C cells at 10 uM assessed as cell growth relative to control; assay type: functional; settings: read-out: Activity
[7] = test system: UACC-62; test: Cytotoxicity against human UACC62 cells at 10 uM assessed as cell growth relative to control; assay type: functional; settings: read-out: Activity
[8] = test system: A549; test: Cytotoxicity against human A549 cells at 10 uM assessed as cell growth relative to control; assay type: functional; settings: read-out: Activity
[9] = test system: MOLT-4; test: Cytotoxicity against human MOLT4 cells at 10 uM assessed as cell growth relative to control; assay type: functional; settings: read-out: Activity
[10] = test system: SK-OV-3; test: Cytotoxicity against human SKOV3 cells at 10 uM assessed as cell growth relative to control; assay type: functional; settings: read-out: Activity
[11] = test system: K562; test: Cytotoxicity against human K562 cells at 10 uM assessed as cell growth relative to control; assay type: functional; settings: read-out: Activity
[12] = test system: DU-145; test: Cytotoxicity against human DU145 cells at 10 uM assessed as cell growth relative to control; assay type: functional; settings: read-out: Activity
[13] = test system: OVCAR-4; test: Cytotoxicity against human OVCAR4 cells at 10 uM assessed as cell growth relative to control; assay type: functional; settings: read-out: Activity
[14] = test system: CAKI-1; test: Cytotoxicity against human Caki1 cells at 10 uM assessed as cell growth relative to control; assay type: functional; settings: read-out: Activity
[15] = test system: LOX IMVI; test: Cytotoxicity against human LOXIMVI cells at 10 uM assessed as cell growth relative to control; assay type: functional; settings: read-out: Activity
[16] = test system: NCI-H226; test: Cytotoxicity against human NCI-H226 cells at 10 uM assessed as cell growth relative to control; assay type: functional; settings: read-out: Activity
[17] = target: Dual specificity mitogen-activated protein kinase kinase; MEK1/2 (Homo sapiens) (UniProt P36507+Q02750); settings: HEK293, at 10 µM
Chain of Dual specificity mitogen-activated protein kinase kinase; MEK1/2 (Homo sapiens) (P36507 whole entry, looked up): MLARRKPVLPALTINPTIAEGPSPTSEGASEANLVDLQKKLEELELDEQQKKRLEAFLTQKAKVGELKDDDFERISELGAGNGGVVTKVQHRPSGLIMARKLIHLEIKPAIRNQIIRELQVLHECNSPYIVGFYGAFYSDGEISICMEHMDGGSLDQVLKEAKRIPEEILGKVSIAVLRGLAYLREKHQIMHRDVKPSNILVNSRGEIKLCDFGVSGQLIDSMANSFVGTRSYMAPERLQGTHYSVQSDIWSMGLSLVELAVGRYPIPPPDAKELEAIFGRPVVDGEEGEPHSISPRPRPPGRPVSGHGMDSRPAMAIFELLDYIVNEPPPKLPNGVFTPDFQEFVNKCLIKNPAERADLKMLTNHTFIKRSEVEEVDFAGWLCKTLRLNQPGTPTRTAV
Chain of Dual specificity mitogen-activated protein kinase kinase; MEK1/2 (Homo sapiens) (Q02750 whole entry, looked up): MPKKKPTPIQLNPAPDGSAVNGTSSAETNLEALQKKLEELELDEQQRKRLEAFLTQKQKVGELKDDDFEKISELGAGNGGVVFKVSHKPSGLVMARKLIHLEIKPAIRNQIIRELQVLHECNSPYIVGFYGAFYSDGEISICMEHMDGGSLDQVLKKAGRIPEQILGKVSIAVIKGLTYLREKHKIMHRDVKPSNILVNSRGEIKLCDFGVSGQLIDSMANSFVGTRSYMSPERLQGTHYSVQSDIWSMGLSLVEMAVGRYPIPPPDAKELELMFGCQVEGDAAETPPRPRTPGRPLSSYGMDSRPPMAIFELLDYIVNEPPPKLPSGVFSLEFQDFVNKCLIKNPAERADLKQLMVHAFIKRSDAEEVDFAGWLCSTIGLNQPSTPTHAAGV
Description: Inhibition of EGF-induced MEK1/2 activity in HEK293 cells assessed as phosphorylated ERK1/2 level at 10 uM after 1 hr by Western blotting relative to control

SMILES	growth at 10 µM [1]	growth at 10 µM [2]	growth at 10 µM [3]	growth at 10 µM [4]	growth at 10 µM [5]	growth at 10 µM [6]	growth at 10 µM [7]	growth at 10 µM [8]	growth at 10 µM [9]	growth at 10 µM [10]	growth at 10 µM [11]	growth at 10 µM [12]	growth at 10 µM [13]	growth at 10 µM [14]	growth at 10 µM [15]	growth at 10 µM [16]	inhibition [17]
COCCCOc1cc(NCc2ccccc2)c2ncn(C(C)C)c2c1	96.1%	109%	86.8%	91.7%	95.4%	90.8%	91.9%	94%	88.2%	101%	90.9%	99.2%	87.8%	81.3%	94.5%	91.6%	
COc1cc(NCc2ccccc2)c2ncn(C(C)C)c2c1		136%	93.9%	105%	93.9%	104%	97.3%	110%	78.7%	110%	64.2%	136%	50.6%	97.2%	115%	97.1%	54%
